Results: publication PMC2453323 (PLoS Pathogens, 2008)

Key:
[1] = biological target: neuraminidase of A(H1N1) clinical isolate 1149/08 (Influenza A virus, UniProt G3LYQ1); type: biochemical
[2] = biological target: neuraminidase of A(H1N1) clinical isolate 0814/07 (Influenza A virus, UniProt D5F1R0); type: biochemical
[3] = biological target: neuraminidase of A(H1N1) clinical isolate 0497/07 (Influenza A virus (H1N1), UniProt D5F1R0); type: biochemical
[4] = biological target: neuraminidase of the 5 pre-2007–2008 H1N1 viruses (Influenza A virus, UniProt B4URD9); type: biochemical; conditions: read-out: Mean Km, group Mean
[5] = biological target: neuraminidase of A(H1N1) clinical isolate 0692/07 (Influenza A virus (H1N1), UniProt A8C8J7); type: biochemical
[6] = biological target: neuraminidase of A(H1N1) clinical isolate 0286/07 (Influenza A virus (H1N1), UniProt D5F1R0); type: biochemical
[7] = biological target: neuraminidase of A(H1N1) clinical isolate 0611/07 (Influenza A virus (H1N1), UniProt D5F1R0); type: biochemical
[8] = biological target: neuraminidase of A/New Caledonia/20/99(H1N1) (NC99) (Influenza A virus, UniProt Q7TG96); experiment: biochemical; type: biochemical
[9] = biological target: neuraminidase of A(H1N1) clinical isolate 0974/08 (Influenza A virus, UniProt G3LYQ1); type: biochemical
[10] = biological target: neuraminidase of the 6 sensitive H1N1 viruses from the 2007–2008 season (Influenza A virus, UniProt D5F1R0); type: biochemical; conditions: read-out: Mean Km, group Mean
[11] = biological target: neuraminidase of A/Solomon Islands/3/2006(H1N1) (SI06) (Influenza A virus, UniProt B4URD9); type: biochemical
[12] = biological target: neuraminidase of A(H1N1) clinical isolate 0650/04 (Influenza A virus (H1N1), UniProt B4YYP0); experiment: biochemical
[13] = biological target: neuraminidase of A(H1N1) clinical isolate 1951/06 (Influenza A virus, UniProt B4URD9); type: biochemical

SMILES | Km [1] [µM] | Km [2] [µM] | Km [3] [µM] | Km [4] [µM] | Km [5] [µM] | Km [6] [µM] | Km [7] [µM] | Km [8] [µM] | Km [9] [µM] | Km [10] [µM] | Km [11] [µM] | Km [12] [µM] | Km [13] [µM] | Ki [12] [nM] | Ki [8] [nM]
CC(=O)N[C@@H]1[C@@H](O)C[C@](Oc2ccc3c(C)cc(=O)oc3c2)(C(=O)O)O[C@H]1C(O)[C@H](O)CO (stereo partly shown) [MUNANA] | 10.4 | 9 | 7.5 | 28 | 31.5 | 8.5 | 8 | 27.4 | 10.4 | 9 ± 1.2 | 25.1 | 25.6 | 29.5 | – | –
CC(=O)N[C@H]1[C@H]([C@H](O)[C@H](O)CO)OC(C(=O)O)=C[C@@H]1N=C(N)N [Zana, zanamivir] | – | – | – | – | – | – | – | – | – | – | – | – | – | 0.2 | –
CCOC(=O)C1=C[C@@H](OC(CC)CC)[C@H](NC(C)=O)[C@@H](N)C1 [OC, oseltamivir] | – | – | – | – | – | – | – | – | – | – | – | – | – | 0.2 | 0.19
